Results as given in ChEMBL document CHEMBL1138025, “Nocathiacin I analogues: synthesis, in vitro and in vivo biological activity of novel semi-synthetic thiazolyl peptide antibiotics” (Bioorg Med Chem Lett, 2004).
In brackets after ≈: the same amount, converted by molar mass.

Columns and labels:
[1] = test system: Staphylococcus aureus; assay: In vitro antibacterial activity against methicillin-sensitive Staphylococcus aureus A15090; assay type: functional
[2] = test system: Enterococcus faecalis; assay: In vitro antibacterial activity against methicillin-sensitive Enterococcus faecalis A20688; assay type: functional
[3] = test system: Streptococcus pneumoniae; assay: In vitro antibacterial activity against penicillin-resistant Streptococcus pneumoniae A28272; assay type: functional
[4] = test system: Mus musculus; assay: In vivo efficacy (PD50) against lethal Staphylococcus aureus systemic infection model in mice; assay type: functional; conditions: read-out: PD50
[5] = Equilibrium water solubility at pH 3.4; assay type: physicochemical
[6] = Equilibrium water solubility at pH 3.0; assay type: physicochemical
[7] = Equilibrium water solubility at pH 2.9; assay type: physicochemical
[8] = Equilibrium water solubility at pH 3.1; assay type: physicochemical

Row | Structure (SMILES) | MIC [1] | MIC [2] | MIC [3] | ED50 [4] | solubility thermodynamic [5] | solubility thermodynamic [6] | solubility thermodynamic [7] | solubility thermodynamic [8]
1 | CO/C(C)=C1/NC(=O)[C@H]([C@@H](C)O)NC(=O)c2csc(n2)-c2cc(O)c(-c3nc(C(=O)NC(CN4CCN(C)CC4)C(N)=O)cs3)nc2-c2csc(n2)[C@@H]2COC(=O)c3c4c5c(cccc5n3O)COC(=O)[C@@H](O[C@H]3C[C@](C)(O)[C@H](N(C)C)[C@H](C)O3)[C@@H](OC4)[C@H](NC(=O)c3csc1n3)c1nc(cs1)C(=O)N2 (stereo partly drawn) | 0.25 mg/L (≈ 0.163 µM) | 0.5 mg/L (≈ 0.325 µM) | 0.12 mg/L (≈ 0.078 µM) | 1.4 mg/kg | > 10 mg/mL |  |  | 
2 | CO/C(C)=C1/NC(=O)[C@H]([C@@H](C)O)NC(=O)c2csc(n2)-c2cc(O)c(-c3nc(C(=O)NC(CN(C)CCO)C(N)=O)cs3)nc2-c2csc(n2)[C@@H]2COC(=O)c3c4c5c(cccc5n3O)COC(=O)[C@@H](O[C@H]3C[C@](C)(O)[C@H](N(C)C)[C@H](C)O3)[C@@H](OC4)[C@H](NC(=O)c3csc1n3)c1nc(cs1)C(=O)N2 (stereo partly drawn) | 0.01 mg/L (≈ 0.00661 µM) | 0.06 mg/L (≈ 0.0397 µM) | 0.01 mg/L (≈ 0.00661 µM) | 0.8 mg/kg | > 10 mg/mL |  |  | 
3 | CO/C(C)=C1/NC(=O)[C@H]([C@@H](C)O)NC(=O)c2csc(n2)-c2cc(O)c(-c3nc(C(=O)NC(CN4CCN(c5ccccn5)CC4)C(N)=O)cs3)nc2-c2csc(n2)[C@@H]2COC(=O)c3c4c5c(cccc5n3O)COC(=O)[C@@H](O[C@H]3C[C@](C)(O)[C@H](N(C)C)[C@H](C)O3)[C@@H](OC4)[C@H](NC(=O)c3csc1n3)c1nc(cs1)C(=O)N2 (stereo partly drawn) | 0.12 mg/L (≈ 0.075 µM) | 0.25 mg/L (≈ 0.156 µM) | 0.03 mg/L (≈ 0.0187 µM) | < 0.62 mg/kg |  | > 2.4 mg/mL |  | 
4 | CO/C(C)=C1/NC(=O)[C@H]([C@@H](C)O)NC(=O)c2csc(n2)-c2cc(O)c(-c3nc(C(=O)NC(CN(C)CCCNc4ccncc4)C(N)=O)cs3)nc2-c2csc(n2)[C@@H]2COC(=O)c3c4c5c(cccc5n3O)COC(=O)[C@@H](O[C@H]3C[C@](C)(O)[C@H](N(C)C)[C@H](C)O3)[C@@H](OC4)[C@H](NC(=O)c3csc1n3)c1nc(cs1)C(=O)N2 (stereo partly drawn) | 1 mg/L (≈ 0.624 µM) | 0.5 mg/L (≈ 0.312 µM) | 0.25 mg/L (≈ 0.156 µM) | > 10 mg/kg |  | > 3 mg/mL |  | 
5 | CO/C(C)=C1/NC(=O)[C@H]([C@@H](C)O)NC(=O)c2csc(n2)-c2cc(O)c(-c3nc(C(=O)NC(CN(C)CCN(C)C)C(N)=O)cs3)nc2-c2csc(n2)[C@@H]2COC(=O)c3c4c5c(cccc5n3O)COC(=O)[C@@H](O[C@H]3C[C@](C)(O)[C@H](N(C)C)[C@H](C)O3)[C@@H](OC4)[C@H](NC(=O)c3csc1n3)c1nc(cs1)C(=O)N2 (stereo partly drawn) | 0.06 mg/L (≈ 0.039 µM) | 0.5 mg/L (≈ 0.325 µM) | 0.007 mg/L (≈ 0.00455 µM) | 3.3 mg/kg |  |  | > 10 mg/mL | 
6 | CO/C(C)=C1/NC(=O)[C@H]([C@@H](C)O)NC(=O)c2csc(n2)-c2cc(O)c(-c3nc(C(=O)NC(CN4CCN(CCN(C)C)CC4)C(N)=O)cs3)nc2-c2csc(n2)[C@@H]2COC(=O)c3c4c5c(cccc5n3O)COC(=O)[C@@H](O[C@H]3C[C@](C)(O)[C@H](N(C)C)[C@H](C)O3)[C@@H](OC4)[C@H](NC(=O)c3csc1n3)c1nc(cs1)C(=O)N2 (stereo partly drawn) | 0.5 mg/L (≈ 0.314 µM) | 0.12 mg/L (≈ 0.0752 µM) | 0.25 mg/L (≈ 0.157 µM) | 5.3 mg/kg | > 3.8 mg/mL |  |  | 
7 | CO/C(C)=C1/NC(=O)[C@H]([C@@H](C)O)NC(=O)c2csc(n2)-c2cc(O)c(-c3nc(C(=O)NC(CNCCNC(C)=O)C(N)=O)cs3)nc2-c2csc(n2)[C@@H]2COC(=O)c3c4c5c(cccc5n3O)COC(=O)[C@@H](O[C@H]3C[C@](C)(O)[C@H](N(C)C)[C@H](C)O3)[C@@H](OC4)[C@H](NC(=O)c3csc1n3)c1nc(cs1)C(=O)N2 (stereo partly drawn) | 1 mg/L (≈ 0.649 µM) | 4 mg/L (≈ 2.6 µM) | 0.12 mg/L (≈ 0.0779 µM) | > 10 mg/kg |  |  |  | > 3 mg/mL
8 | CO/C(C)=C1/NC(=O)[C@H]([C@@H](C)O)NC(=O)c2csc(n2)-c2cc(O)c(-c3nc(C(=O)NC(CN(C)CCN4CCCCC4)C(N)=O)cs3)nc2-c2csc(n2)[C@@H]2COC(=O)c3c4c5c(cccc5n3O)COC(=O)[C@@H](O[C@H]3C[C@](C)(O)[C@H](N(C)C)[C@H](C)O3)[C@@H](OC4)[C@H](NC(=O)c3csc1n3)c1nc(cs1)C(=O)N2 (stereo partly drawn) | 0.12 mg/L (≈ 0.076 µM) | 1 mg/L (≈ 0.633 µM) | 0.03 mg/L (≈ 0.019 µM) | 3.2 mg/kg |  | > 2.7 mg/mL |  | 
9 | CO/C(C)=C1/NC(=O)[C@H]([C@@H](C)O)NC(=O)c2csc(n2)-c2cc(O)c(-c3nc(C(=O)NC(CN4CCN(CCN5CCOCC5)CC4)C(N)=O)cs3)nc2-c2csc(n2)[C@@H]2COC(=O)c3c4c5c(cccc5n3O)COC(=O)[C@@H](O[C@H]3C[C@](C)(O)[C@H](N(C)C)[C@H](C)O3)[C@@H](OC4)[C@H](NC(=O)c3csc1n3)c1nc(cs1)C(=O)N2 (stereo partly drawn) | 0.25 mg/L (≈ 0.153 µM) | 0.5 mg/L (≈ 0.305 µM) | 0.06 mg/L (≈ 0.0367 µM) | 1.4 mg/kg |  | > 12.3 mg/mL |  | 
10 | CO/C(C)=C1/NC(=O)[C@H]([C@@H](C)O)NC(=O)c2csc(n2)-c2cc(O)c(-c3nc(C(=O)NC(CNCCN(C)C)C(N)=O)cs3)nc2-c2csc(n2)[C@@H]2COC(=O)c3c4c5c(cccc5n3O)COC(=O)[C@@H](O[C@H]3C[C@](C)(O)[C@H](N(C)C)[C@H](C)O3)[C@@H](OC4)[C@H](NC(=O)c3csc1n3)c1nc(cs1)C(=O)N2 (stereo partly drawn) | 2 mg/L (≈ 1.31 µM) | 4 mg/L (≈ 2.62 µM) | 0.03 mg/L (≈ 0.0197 µM) | 4.2 mg/kg |  |  |  | > 3.8 mg/mL
11 | CO/C(C)=C1/NC(=O)[C@H]([C@@H](C)O)NC(=O)c2csc(n2)-c2cc(O)c(-c3nc(C(=O)NC(CN4CCN(CCOCCO)CC4)C(N)=O)cs3)nc2-c2csc(n2)[C@@H]2COC(=O)c3c4c5c(cccc5n3O)COC(=O)[C@@H](O[C@H]3C[C@](C)(O)[C@H](N(C)C)[C@H](C)O3)[C@@H](OC4)[C@H](NC(=O)c3csc1n3)c1nc(cs1)C(=O)N2 (stereo partly drawn) | 0.5 mg/L (≈ 0.31 µM) | 1 mg/L (≈ 0.62 µM) | 0.12 mg/L (≈ 0.0745 µM) | 1.34 mg/kg |  |  |  | > 3 mg/mL
12 | CCOC(=O)CN1CCN(CC(NC(=O)c2csc(-c3nc4c(cc3O)-c3nc(cs3)C(=O)N[C@@H]([C@@H](C)O)C(=O)N/C(=C(\C)OC)c3nc(cs3)C(=O)N[C@@H]3c5nc(cs5)C(=O)N[C@@H](COC(=O)c5c6c7c(cccc7n5O)COC(=O)[C@@H](O[C@H]5C[C@](C)(O)[C@H](N(C)C)[C@H](C)O5)[C@H]3OC6)c3nc-4cs3)n2)C(N)=O)CC1 (stereo partly drawn) | 0.06 mg/L (≈ 0.0373 µM) | 0.25 mg/L (≈ 0.155 µM) | 0.007 mg/L (≈ 0.00435 µM) |  |  |  |  | 
13 | CO/C(C)=C1/NC(=O)[C@H]([C@@H](C)O)NC(=O)c2csc(n2)-c2cc(O)c(-c3nc(C(=O)NC(CNCCc4ccccn4)C(N)=O)cs3)nc2-c2csc(n2)C2COC(=O)c3c4c5c(cccc5n3O)COC(=O)[C@@H](O[C@H]3C[C@](C)(O)[C@H](N(C)C)[C@H](C)O3)[C@@H](OC4)[C@H](NC(=O)c3csc1n3)c1nc(cs1)C(=O)N2 (stereo partly drawn) | 1 mg/L (≈ 0.641 µM) | 1 mg/L (≈ 0.641 µM) | 0.25 mg/L (≈ 0.16 µM) | 2.8 mg/kg | > 10 mg/mL |  |  | 
14 | CNCCN(C)CC(NC(=O)c1csc(-c2nc3c(cc2O)-c2nc(cs2)C(=O)N[C@@H]([C@@H](C)O)C(=O)N/C(=C(\C)OC)c2nc(cs2)C(=O)N[C@@H]2c4nc(cs4)C(=O)N[C@@H](COC(=O)c4c5c6c(cccc6n4O)COC(=O)[C@@H](O[C@H]4C[C@](C)(O)[C@H](N(C)C)[C@H](C)O4)[C@H]2OC5)c2nc-3cs2)n1)C(N)=O (stereo partly drawn) | 0.06 mg/L (≈ 0.0393 µM) | 0.5 mg/L (≈ 0.328 µM) | 0.001 mg/L (≈ 0.000655 µM) | > 10 mg/kg |  | > 2.8 mg/mL |  | 
15 | CO/C(C)=C1/NC(=O)[C@H]([C@@H](C)O)NC(=O)c2csc(n2)-c2cc(O)c(-c3nc(C(=O)NC(CN4CCN(c5ccncc5)CC4)C(N)=O)cs3)nc2-c2csc(n2)[C@@H]2COC(=O)c3c4c5c(cccc5n3O)COC(=O)[C@@H](O[C@H]3C[C@](C)(O)[C@H](N(C)C)[C@H](C)O3)[C@@H](OC4)[C@H](NC(=O)c3csc1n3)c1nc(cs1)C(=O)N2 (stereo partly drawn) | 0.25 mg/L (≈ 0.156 µM) | 0.5 mg/L (≈ 0.312 µM) | 0.06 mg/L (≈ 0.0375 µM) | 4.5 mg/kg |  | > 12.5 mg/mL |  | 
16 | CO/C(C)=C1/NC(=O)[C@H]([C@@H](C)O)NC(=O)c2csc(n2)-c2cc(O)c(-c3nc(C(=O)NC(CN4CCN(c5cccnc5)CC4)C(N)=O)cs3)nc2-c2csc(n2)[C@@H]2COC(=O)c3c4c5c(cccc5n3O)COC(=O)[C@@H](O[C@H]3C[C@](C)(O)[C@H](N(C)C)[C@H](C)O3)[C@@H](OC4)[C@H](NC(=O)c3csc1n3)c1nc(cs1)C(=O)N2 (stereo partly drawn) | 0.06 mg/L (≈ 0.0375 µM) | 0.25 mg/L (≈ 0.156 µM) | 0.007 mg/L (≈ 0.00437 µM) | 1.43 mg/kg |  | > 2.3 mg/mL |  | 
17 | CO/C(C)=C1/NC(=O)[C@H]([C@@H](C)O)NC(=O)c2csc(n2)-c2cc(O)c(-c3nc(C(=O)NC(CN4CCOCC4)C(N)=O)cs3)nc2-c2csc(n2)[C@@H]2COC(=O)c3c4c5c(cccc5n3O)COC(=O)[C@@H](O[C@H]3C[C@](C)(O)[C@H](N(C)C)[C@H](C)O3)[C@@H](OC4)[C@H](NC(=O)c3csc1n3)c1nc(cs1)C(=O)N2 (stereo partly drawn) | 0.007 mg/L (≈ 0.00459 µM) | 0.01 mg/L (≈ 0.00656 µM) | 0.01 mg/L (≈ 0.00656 µM) | 0.8 mg/kg |  |  |  | > 2.1 mg/mL
